Assay results from patent US20160106102A1, “KNOWN AND NEW HETEROCYCLIC COMPOUNDS AS PEST CONTROL AGENTS” (BAYER CROPSCIENCE AKTIENGESELLSCHAFT, priority 2013, published 2016).
Like-named read-outs stand apart in the source and are kept apart here.

Experiments:
Myzus persicae [1] = experiment: Myzus persicae - spray test; type: in vivo; conditions: application rate of 500 g/ha; after 6 days; sprayed Chinese cabbage leaf discs infested by all stages; 100% = all aphids killed
Protocol: Myzus persicae—spray test Solvent: 78 parts by weight of acetone • • 1.5 parts by weight of dimethylformamide Emulsifier: 0.5 part by weight of alkylaryl polyglycol ether To produce an appropriate active ingredient formulation, 1 part by weight of active ingredient is mixed with the specified amounts of solvent and emulsifier, and the concentrate is diluted to the desired concentration with emulsifier-containing water. Discs of Chinese cabbage leaves (Brassica pekinensis) infested by all stages of the green peach aphid (Myzus persicae) are sprayed with an active ingredient formulation of the desired concentration. After 6 days, the efficacy in % is determined. 100% means that all the aphids have been killed; 0% means that no aphids have been killed.

[2] = log P determination by LC-MS in the acidic range; type: physicochemical
Source text: The LC-MS determination in the acidic range is effected at pH 2.7 using 0.1% aqueous formic acid and acetonitrile (contains 0.1% formic acid) as eluents, linear gradient from 10% acetonitrile to 95% acetonitrile. Alternatively, the determination is effected in the acidic range at pH 2.3 using 0.1% aqueous phosphoric acid and acetonitrile as eluents; linear gradient from 10% acetonitrile to 95% acetonitrile.

Myzus persicae [3] = experiment: Myzus persicae - sachet test; type: in vivo; conditions: 100% = all animals killed; for pest or weed control at 30 ppm / pest or weed control at 6 ppm: Myzus persicae, read-out: efficacy (kill in %)
Summary of the method: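 Active ingredient dissolved with 2% N-methylpyrrolidone and 2% diacetone alcohol, diluted in water, then pipetted into nutrient medium. Plate sealed and paired with a plate carrying green peach aphids. Kill in % scored after the set time (100% = all dead, 0% = none dead).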

[4] = application rate of 6 ppm in nutrient medium
[5] = application rate of 30 ppm in nutrient medium
[6] = pH 2.7, LC-MS in the acidic range, read-out: log P (acid)
[7] = pH 2.7, values given in the synthesis examples and NMR lists, read-out: HPLC-MS: log P
[8] = Table 4, HPLC on reversed-phase column (C 18), 55° C., acidic range (pH 2.7 or pH 2.3)

Structure (SMILES) | log P (acid) ([2]; LC-MS in the acidic range) | efficacy (kill in %) (Myzus persicae [3]; [4]) | efficacy (kill in %) (Myzus persicae [3]; [5]) | also measured
COC(=O)C(C)(C)NC(=O)Cn1nc(NC(=O)c2cncc(F)c2)cc1C [Compound I-1-41] | 1.33 |  |  | efficacy in % (Myzus persicae [1]): 90%
COCCn1nc(N(C)C(=O)c2cccnc2)cc1C [Compound I-1-179] | 0.79 |  |  | efficacy in % (Myzus persicae [1]): 100%
Cc1cc(NC(=O)c2ccnnc2)nn1Cc1ccccc1 [Compound I-1-79, N-(1-Benzyl-5-methyl-1H-pyrazol-3-yl)pyridazine-4-carboxamide] |  |  |  | chromatographic logP [2, 6]: 1.67; chromatographic logP [2, 7]: 1.67; pest or weed control at 30 ppm (Myzus persicae [3]; [5]): 100%
CCc1nc(NC(=O)c2cccnc2)nn1C [Compound I-2-17] |  |  | 100% | log P (acid) ([2]; Table 2, compounds of the formula (I-2), acidic range pH 2.7 or pH 2.3): 0.01
Cc1cc(NC(=O)c2cccnc2)nn1C(=O)c1ccccc1Cl [Compound I-1-122, N-[1-(2-Chlorobenzoyl)-5-methyl-1H-pyrazol-3-yl]nicotinamide] |  |  |  | chromatographic logP [2, 6]: 2.27; chromatographic logP [2, 7]: 2.27; pest or weed control at 6 ppm (Myzus persicae [3]; [4]): 100%; pest or weed control at 30 ppm (Myzus persicae [3]; [5]): 100%
COC(=O)c1cccc(Cn2ccc(NC(=O)c3cccnc3)n2)c1 [Compound I-1-77] | 1.57 | 100% | 100% | 
Cc1cc(NC(=O)c2cncc(Br)c2)nn1Cc1ccccc1 [Compound I-1-99] | 2.58 |  | 100% | 
Cc1cc(Cn2nc(NC(=O)c3cccnc3)cc2C)oc(=O)c1 [Compound I-1-154] |  | 100% | 100% | efficacy in % (Myzus persicae [1]): 90%
Cc1cccc(Cn2nc(NC(=O)c3cccnc3)cc2C)c1 [Compound I-1-50] |  |  | 100% | efficacy in % (Myzus persicae [1]): 90%
CC(NC(=O)Cn1nnc(NC(=O)c2cccnc2)n1)c1ccccc1 (stereo not shown) [Compound I-4-6, N-(2-{2-Oxo-2-[(1-phenylethyl)amino]ethyl}-2H-tetrazol-5-yl)nicotinamide] |  |  |  | chromatographic logP ([2]; reversed-phase HPLC column (C18), pH 2.7, Table 4, HPLC on reversed-phase column (C 18), 55° C., acidic range (pH 2.7 or pH 2.3), read-out: log P (acid)): 1.34; chromatographic logP ([2]; reversed-phase HPLC column (C18), pH 2.7, values given in the synthesis examples and NMR lists, read-out: HPLC-MS: log P): 1.34; pest or weed control at 6 ppm (Myzus persicae [3]; [4]): 100%; pest or weed control at 30 ppm (Myzus persicae [3]; [5]): 100%
O=C(Nc1ccn(Cc2cccc(C(F)(F)F)c2)n1)c1ccc(Cl)nc1 [Compound I-1-87] | 2.82 |  | 100% | 
Cc1cc(NC(=O)c2ccc(Cl)nc2)nn1Cc1ccc(F)cc1 [Compound I-1-95] | 2.57 |  | 100% | 
C=CCn1nnc(NC(=O)c2cccnc2)n1 [Compound I-4-8] |  | 100% | 100% | log P (acid) [2, 8]: 0.60
Cc1ccc(C(=O)Nc2cc(C)n(Cc3cccc(F)c3)n2)cn1 [Compound I-1-108] | 1.79 |  | 100% | 
O=C(Nc1ccn(Cc2ccccc2C(F)(F)F)n1)c1cccnc1 [Compound I-1-91] | 2.09 |  | 100% | 
Cc1cn(Cc2ncccn2)nc1NC(=O)c1cccnc1 [Compound I-1-136, N-[4-Methyl-1-(pyrimidin-2-ylmethyl)-1H-pyrazol-3-yl]nicotinamide] |  |  |  | chromatographic logP [2, 6]: 0.44; chromatographic logP [2, 7]: 0.44; pest or weed control at 30 ppm (Myzus persicae [3]; [5]): 100%
COc1ccc(C(=O)Nc2cc(C)n(Cc3ccccc3)n2)cn1 [Compound I-1-104] | 2.43 | 80% | 80% | 
Cc1cc(NC(=O)c2ccc(Cl)nc2)nn1Cc1ccccc1F [Compound I-1-93] | 2.59 |  | 100% | 
Cn1nnc(NC(=O)c2cccnc2)n1 [Compound I-4-2] |  |  | 100% | log P (acid) [2, 8]: <−0.23
Cc1nc2c(c(NC(=O)c3cncc(F)c3)nn2C)c(C)c1C [Compound I-1-57] | 1.6 | 100% | 100% | 

Continued, in another order:

log P (acid) ([2]; LC-MS in the acidic range) | Structure (SMILES) | efficacy (kill in %) (Myzus persicae [3]; [4]) | efficacy (kill in %) (Myzus persicae [3]; [5]) | also measured
1.65 | Cc1cc(NC(=O)c2cccnc2)nn1C(=O)NCC1CC1 [Compound I-1-316] | 100% | 100% | 
1.6 | Cc1cc(C)nc(-n2nc(NC(=O)c3cccnc3)cc2C)n1 [Compound I-1-139] | 100% | 100% | 
1.03 | Cc1cc(NC(=O)c2cccnc2)nn1Cc1cn2cc(Cl)ccc2n1 [Compound I-1-160] | 100% | 100% | 
1.08 | Cc1cc(NC(=O)c2cccnc2)nn1CN1CCS/C1=N/C#N [Compound I-1-142] | 100% | 100% | 
0.74 | Cc1cc(NC(=O)c2cccnc2)nn1CS(=O)(=O)c1ncccn1 [Compound I-1-236] | 100% | 100% | 
1.88 | Cc1cc(NC(=O)c2cccnc2)nn1Cc1ccc(F)cc1 [Compound I-1-62] | 100% | 100% | 
2.36 | Cc1cc(NC(=O)c2cccnc2)nn1-c1ccc(Cl)cc1Cl [Compound I-1-207] | 100% | 100% | 
1.42 | Cc1cc(NC(=O)c2cccnc2)nn1Cc1ccc(Cl)nc1 [Compound I-1-21] | 100% | 100% | 
1.0 | N#Cc1cc(NC(=O)c2cccnc2)nn1Cc1ncccn1 [Compound I-1-269] | 100% | 100% | 
2.51 | Cc1cc(NC(=O)c2cccnc2)nn1S(=O)(=O)N1CCC(C)CC1 [Compound I-1-162] | 100% | 100% | 
2.31 | CCN(CC)C(=O)n1nc(NC(=O)c2cccnc2)cc1C [Compound I-1-290] | 100% | 100% | 
2.11 | Cc1ccc(C)c(Cn2ccc(NC(=O)c3cccnc3)n2)c1 [Compound I-1-81] |  | 100% | 
0.89 | CCOC(=O)Cn1nc(NC(=O)c2cccnc2)cc1C [Compound I-1-24] | 100% | 100% | 
2.4 | Cc1cc(C)cc(-n2nc(NC(=O)c3cccnc3)cc2C)c1 [Compound I-1-208] |  | 100% | 
1.99 | Cc1cc(NC(=O)c2cccnc2)nn1C(=O)NC(C)(C)C [Compound I-1-319] | 100% | 100% | 
1.17 | CSCn1nc(NC(=O)c2cccnc2)cc1C [Compound I-1-241] | 100% | 100% | 
0.5 | Cc1cc(NC(=O)c2cccnc2)nn1C[S+]([O-])c1ncccn1 (stereo not shown) [Compound I-1-235] | 80% | 100% | 
0.97 | Cc1cc(NC(=O)c2cccnc2)nn1C(=O)NCCS(C)(=O)=O [Compound I-1-309] | 100% | 100% | 
0.89 | Cn1nc(NC(=O)c2cccnc2)cc1OC(F)F [Compound I-1-111] | 100% | 100% | 
